Results from article PMC12705620 (Frontiers in Pharmacology, 2025).
Values joined by “and” are separate entries in the source; they are usually repeats but may differ in a detail not shown here. Equal entries are not always repeated. Where two headings read alike, the source gives them in different places.

Tests used:
[1] = test system: HaCaT human keratinocytes; assay: Cytotoxicity (WST-1 and LDH); type: cell-based; conditions: for Cytotoxicity, LDH leakage / Cytotoxicity, Metabolic activity: 24 h exposure, triplicate; for Cytotoxicity, LDH leakage: DMEM 2% FBS, concentration causing >30% membrane permeation; for Cytotoxicity, Metabolic activity: WST-1, concentration causing <70% metabolic activity
Method: (§1) Cells (5 × 10^5 cells/mL) were seeded in 96-well plates (100 μL/well; Thermo Scientific) and allowed to adhere for 24 h. After adhesion, monolayers were exposed to two-fold serial dilutions of the tetrameric and reference peptides (final concentrations: 60–0.05 µM) in fresh DMEM containing 2% (v/v) FBS, and incubated for 24 h at 37 °C in a humidified 5% CO2 atmosphere. Cell viability was assessed using the water-soluble tetrazolium salt (WST-1; Roche) assay, and membrane integrity was measured using the lactate dehydrogenase (LDH) release assay (Abcam), following manufacturer instructions. Absorbance was measured using the Synergy H1 microplate reader (Biotek). Results are expressed as percentages relative to untreated control (for WST-1) and positive lysis control (for LDH) and all experiments were performed in triplicate.

[2] = test system: human skin fibroblast cells (BJ); assay: Cytotoxicity (WST-1 and LDH); type: cell-based; conditions: for Cytotoxicity, LDH leakage / Cytotoxicity, Metabolic activity: 24 h exposure, triplicate; for Cytotoxicity, LDH leakage: DMEM 2% FBS, concentration causing >30% membrane permeation; for Cytotoxicity, Metabolic activity: WST-1, concentration causing <70% metabolic activity
Method: as §1

human erythrocytes = assay: Hemolytic activity; type: cell-based; conditions: 45 min; for Hemolytic concentration (HC) < 30%: 1% human erythrocytes in PBS, 37 °C, absorbance 540 nm, 30% lysis threshold, peptides up to 60 µM, triplicate, single donor
Method: Whole blood was collected from healthy volunteers after obtaining informed consent, using Vacuette EDTA tubes (Greiner Bio-One). […] For hemolytic assessment, 180 μL of the prepared erythrocyte suspension was mixed with 20 μL of serially diluted peptide solutions (ranging from 60 to 0.03 μM in PBS).

[3] = test system: Staphylococcus aureus JAR060131; type: cell-based; conditions: 18 h, 37 °C, median of three independent experiments
Method: (§2) Bactericidal activity was assessed as previously described ([Breij et al., 2018]). Briefly, mid-logarithmic phase bacterial cultures were diluted in RPMI to 1 × 10^7 CFU/mL. For fungicidal assays, fungal cultures were prepared in RPMI supplemented with 1% glucose (Merck) and diluted to 2–5 × 10^5 CFU/mL. For each condition, 10 µL of the suspension was added to 90 µL of peptide-containing RPMI or RPMI supplemented with 50% (v/v) pooled human plasma (hereafter referred to as 50% plasma; final bacterial concentration 1 × 10^6 CFU/mL, final fungal concentration 2–5 × 10^4 CFU/mL. Human plasma from four healthy volunteers (Sanquin, Netherlands) was pooled, and stored at −20 °C until use. Peptides were tested similarly for fungicidal activity, after 18 h of incubation at 37 °C with shaking (120 rpm) under humidified conditions, bacterial and fungal survival was determined by plating 10 µL aliquots onto BA plates. Assays were performed in duplicate in round-bottom polypropylene microtiter plates (Costar) and repeated independently three times. Untreated controls included bacteria exposed to RPMI alone or RPMI with 50% plasma. Bactericidal and fungicidal activity was expressed as the lethal concentration 99.9% (LC99.9), defined as the lowest peptide concentration causing ≥99.9% reduction in numbers of CFU compared to the initial inoculum.

[4] = test system: Acinetobacter baumannii RUH875; type: cell-based; conditions: 18 h, 37 °C, median of three independent experiments (Table 1)
Method: as §2

HaCaT keratinocytes = assay: In vitro scratch wound assay; type: cell-based, human; conditions: 1 µM peptide (TGF-β 20 ng/mL), 60 h (legend: 64 h), versus no treatment
Method: Cell migration following injury was assessed using an in vitro scratch assay with the IncuCyte wound maker tool (Sartorius). HaCaT keratinocytes were seeded in 96-well ImageLock plates (Sartorius) at 3 × 10^5 cells/well (100 µL) in DMEM supplemented with 10% FBS and incubated at 37 °C, 5% CO2 for 48 h, with medium change at 24 h, until confluence. Uniform scratches were introduced using the wound maker tool according to the manufacturer’s instructions. After wounding, wells were washed twice with 100 µL PBS to remove cell debris. Cells were then treated with 1 µM peptides in serum-free DMEM, to focus specifically on cell migration from the wound edges. The absence of serum minimizes interference with peptide activity. Transforming growth factor-beta (TGF-β; human; 20 ng/mL; Sigma-Aldrich) and 5% dimethyl sulfoxide (DMSO; Sigma-Aldrich) were used as positive and negative controls, respectively. Additional controls included serum-free DMEM (no-treatment control) and 50% (v/v) acetonitrile in Milli-Q water as solvent control. Wound closure was monitored using the IncuCyte S3 live-cell imaging system (Sartorius) with bright-field microscopy. Images were captured every 6 h for up to 60 h. Image analysis was performed using ImageJ software (version 1.53t, NIH, USA) with the “Wound Healing” plugin, as described by Suarez Arnedo et al. ([Suarez-Arnedo et al., 2020]). Quantitative parameters included wound width (µm), percent wound closure, and migration rate (µm/hour).

[5] = test system: S. aureus RN4220 (mCherry) in dTHP-1 macrophages; assay: Intracellular bacterial killing in macrophages; type: cell-based, Staphylococcus aureus; conditions: 24 h pre-treatment at 1 µM and 2 µM, MOI 2, CFU after lysis, versus no treatment
Method: Human monocytes (THP-1; TIB-202; ATCC) were cultured in RPMI 1,640 medium (Gibco) supplemented with 10% FBS. For differentiation into macrophage-like cells (dTHP-1), THP-1 monocytes were seeded in 96-well plates at 3 × 10^4 cells/well (100 µL) in RPMI supplemented with 50 ng/mL phorbol 12-myristate 13-acetate (PMA; Sigma-Aldrich), and incubated for 48 h. The protocol for intracellular killing was adapted from Tang et al. ([Tang et al., 2015]) with modifications. After differentiation, dTHP-1 cells were pre-treated with one or 2 µM peptide solutions in fresh RPMI for 24 h. Subsequently peptides were removed by washing three times with PBS. An mCherry-expressing S. aureus strain, prepared as described in Section 5.2, was used. This strain is efficiently internalized by macrophages ([Cuypers et al., 2024]). Bacteria were added to dTHP-1 cells at a multiplicity of infection (MOI) of 2:1 and incubated for 45 min at 37 °C with 5% CO2 for phagocytosis. Extracellular bacteria were then removed by washing the wells three times with 60 µL PBS, followed by a final wash with 200 µL PBS.dTHP-1 cells were either lysed immediately to quantify the number of intracellular bacteria, after phagocytosis (T = 0 h) or were incubated for 24 h (T = 24 h) in RPMI supplemented with 10 μg/mL gentamicin (Sigma-Aldrich) to inhibit extracellular bacterial growth (in both peptide-treated and control dTHP-1 cells). Internalized bacteria were quantified after lysing the cells with 0.025% Triton X-100 in PBS for 15 min. Lysates were serially diluted (both at 0 h and 24 h) and plated onto BA for CFU enumeration to assess intracellular bacterial survival.

[6] = test system: TNF-α production by unstimulated dTHP-1 macrophages; assay: TNFα induction by peptides alone in macrophages; type: cell-based, human; conditions: 2 µM peptide, 4 h, no endotoxin stimulation, versus unstimulated cells
Method: The endotoxin-neutralizing capacity of the peptides was assessed by measuring tumor necrosis factor-alpha (TNF-α) production by dTHP-1 macrophages. dTHP-1 macrophages were stimulated with either lipopolysaccharide (LPS; E. coli O111:B4; 5 ng/mL, Sigma-Aldrich) or UV-inactivated S. aureus JAR060131 (MOI 2; as described in Section 5.2), in the presence or absence of one or 2 µM peptides. Cells were cultured in serum-free RPMI and incubated for 4 h at 37 °C with 5% CO2. Positive controls consisted of cells stimulated with LPS or UV-S. aureus without peptide treatment (no treatment, NT), and unstimulated cells served as negative controls. After stimulation, cell supernatants were collected, and cytokine levels of TNF-α were quantified using human ELISA kits (R&D Systems, USA) according to the manufacturer’s instructions. Each condition was tested in triplicate.

S. aureus JAR060131 = assay: Bactericidal (time-kill) kinetics; type: cell-based, Staphylococcus aureus; conditions: 3.75 µM peptide, 1 × 10^6 CFU/mL
Method: (§3) Time-kill kinetics were evaluated against S. aureus JAR060131 and A. baumannii RUH875. Mid-logarithmic phase bacterial cultures were diluted to a final concentration of 1 × 10^6 CFU/mL in PBS. Bacteria were incubated with 0.5-, 2-, and 4-fold the LC99.9. Assays were conducted in polypropylene tubes (Micronics) with a total volume of 500 µL. Control samples consisted of bacteria incubated in PBS alone. At 1, 5, 30, and 120 min, 50 µL samples were collected and immediately added to 50 µL of 0.05% (v/v) sodium polyanethol sulfonate (SPS; Sigma-Aldrich) in PBS to neutralize residual peptide activity ([Dankert et al., 1995]). Viable bacterial counts were determined by plating 10 µL of serial 10-fold dilutions onto BA plates. Colonies were counted after 24 h of incubation at 37 °C. All conditions were performed in triplicate.

[7] = test system: human keratinocytes and dermal fibroblasts; assay: Cytotoxicity summary over human skin cells; type: cell-based; conditions: 24 h
Method: as §1

A. baumannii RUH875 = assay: Bactericidal (time-kill) kinetics; type: cell-based, Acinetobacter baumannii; conditions: within 1 min at 3.75 µM
Method: as §3

[8] = test system: S. aureus LUH14616 (MRSA); assay: Ex vivo human skin wound infection model; design: species or system Staphylococcus aureus; conditions: 200 µM topical, 4 h treatment, versus untreated control (Figure 4C), p < 0.001
Source text: Human skin from 3 donors was obtained via the Residual Tissue Biobank of the Red Cross Hospital (Beverwijk, Netherlands). The use of these coded, post-operative residual tissue samples was approved by patients through the informed opt-out-plus protocol of the Red Cross Hospital Skin ([Code-of-Conduct-for-Health-Research, 2022]) and processed for an ex vivo wound infection model as described ([Dijksteel et al., 2020]). The Wounded skin grafts were sectioned into approximately 1 cm^2 samples using a sterile scalpel and were decontaminated by immersion in 70% ethanol for 30 min, followed by three PBS washes. Samples were placed dermis-down and wound-side-up on stainless steel grids with central indentations, positioned in 12-well plates, and cultured at the air–liquid interface in DMEM at 37 °C and 5% CO2. To confine reagents to the wound area, a resin barrier (OpalDam; Ultradent) was applied to the wounded area and polymerized using a hand-held UV light (Valo X) for 10 s. The wounds were then topically infected with 10 µL of S. aureus LUH14616 suspension of 1 × 10^7 CFU/mL (final dose: 1 × 10^5 CFU/graft) in PBS for 1 h, followed by topical application of 10 µL of peptide solution for 4 h. Chlorhexidine (0.5% (v/v) in 70% ethanol; Entick B.V.) and PBS were used as positive and negative controls, respectively. After treatment, tissue samples were transferred to polypropylene vials containing 1 mL PBS supplemented with 0.025% (v/v) SPS and a 7 mm stainless steel bead. Homogenization was performed using a MagnaLyser System (Roche) with three 30-s cycles at 7,000 rpm, with 30 s of cooling on ice between cycles. Homogenates were 10-fold serially diluted in PBS, and 100 µL aliquots were plated on BA plates. CFUs were enumerated after overnight incubation at 37 °C.

Row | Molecule | Cytotoxicity, LDH leakage [1] [µM] | Cytotoxicity, Metabolic activity [1] [µM] | Cytotoxicity threshold (tolerance), WST-1 and LDH ([1]; keratinocytes, 24 h) [µM] | Cytotoxicity, LDH leakage [2] [µM] | Cytotoxicity, Metabolic activity [2] [µM] | Cytotoxicity threshold (tolerance), WST-1 and LDH ([2]; fibroblasts, 24 h) [µM] | Hemolysis at the highest concentration tested (human erythrocytes; 60 µM, human erythrocytes) | Hemolytic concentration (HC) < 30% (human erythrocytes) [µM] | LC99.9 ([3]; 50% pooled human plasma in RPMI) [µM] | LC99.9 ([3]; RPMI, 1 × 10^6 CFU/mL) [µM] | LC99.9 ([4]; 50% pooled human plasma) | LC99.9 ([4]; RPMI) | Percentage of wound closure (HaCaT keratinocytes) | Macrophage reduction of intracellular S. aureus burden 24 h post-phagocytosis [5] | TNFα induction by peptide alone [6] | Time to complete killing (S. aureus JAR060131) [min] | Cytotoxic thresholds, WST-1 and LDH [7] [µM] | Log reduction in CFU (A. baumannii RUH875) [log] | Reduction of bacterial load (CFU counts) [8]
1 | CC[C@H](C)[C@H](NC(=O)[C@H](CCCCN)NC(=O)[C@H](CCC(=O)O)NC(=O)[C@H](CCCCN)NC(=O)[C@H](CO)NC(=O)[C@H](CCCCN)NC(=O)[C@H](CCCNC(=N)N)NC(=O)[C@H](Cc1ccccc1)NC(=O)[C@H](Cc1ccccc1)NC(=O)[C@H](CC(=O)O)NC(=O)CNC(=O)[C@H](CC(C)C)NC(=O)[C@@H](N)CC(C)C)C(=O)NCC(=O)N[C@@H](CCCCN)C(=O)N[C@@H](CCC(=O)O)C(=O)N[C@@H](Cc1ccccc1)C(=O)N[C@@H](CCCCN)C(=O)N[C@@H](CCCNC(=N)N)C(=O)N[C@H](C(=O)N[C@H](C(=O)N[C@@H](CCC(N)=O)C(=O)N[C@@H](CCCNC(=N)N)C(=O)N[C@H](C(=O)N[C@@H](CCCCN)C(=O)N[C@@H](CC(=O)O)C(=O)N[C@@H](Cc1ccccc1)C(=O)N[C@@H](CC(C)C)C(=O)N[C@@H](CCCNC(=N)N)C(=O)N[C@@H](CC(N)=O)C(=O)N[C@@H](CC(C)C)C(=O)N[C@H](C(=O)N1CCC[C@H]1C(=O)N[C@@H](CCCNC(=N)N)C(=O)N[C@H](C(=O)N[C@@H](CCC(=O)O)C(=O)N[C@@H](CO)C(=O)O)[C@@H](C)O)C(C)C)[C@@H](C)CC)C(C)C)[C@@H](C)CC [LL-37, reference compound] | 15 | 15 | 15 | 7.5 | 15 | 7.5 to 15 | non-hemolytic | >60 | 60 | 1.88 | > 120 µM and >120 µM | >120 µM | significant wound closure | significantly enhanced | minimal but significant | – | – | – | –
2 | Ac-LKRVWKRVFKLLKRYWRQLKKPVR-NH2 (N-terminus and C-terminus assumed) [SAAP-148, reference compound] | 3.75 | 3.75 | – | 1.88 | 3.75 | – | – | 0.47 | – | – | – | – | – | – | – | ≤ 5 | 1.88 to 3.75 | > 3 | significantly reduced bacterial load
